Patent EP0080682A1, “Bisisoquinolinium compound, pharmaceutical compositions and synthesis” (THE WELLCOME FOUNDATION LIMITED, priority 1981, dated 1983)
Where two headings read alike, the source gives them in different places.

How the values were obtained:
[1] = tested on: isometric twitch of the tibialis anterior muscle; experiment: Neuromuscular block after intravenous administration: isometric twitch of the tibialis anterior muscle in response to peroneal nerve stimulation, Rhesus monkeys; format: in vivo; conditions: Rhesus Monkey
From the text: (§1) Trans, trans-2,2'-(trimethylenebis(carbonyloxytri- methylene))bis(1,2,3,4-tetrahydro-6,7,8-trimethoxy-2-methyl-1-(3,4,5-trimethoxybenzyl)isoquinolinium) dichloride (prepared as in Example 3) was examined by intravenous administration to cats and Rhesus monkeys, maintained by artificial ventilation and prepared for recording the isometric twitch of the tibialis anterior muscle in response to stimulation of peroneal nerve.

[2] = tested on: isometric twitch of the tibialis anterior muscle; experiment: Neuromuscular block after intravenous administration: isometric twitch of the tibialis anterior muscle in response to peroneal nerve stimulation, cats; format: in vivo; conditions: Cat
From the text: as §1

[3] = cited from earlier work
[4] = intravenous, time from injection to 95% recovery

**Q.** What does the source list for `COc1cc(CC2c3c(cc(OC)c(OC)c3OC)CC[N+]2(C)CCCOC(=O)CCCC(=O)OCCC[N+]2(C)CCc3cc(OC)c(OC)c(OC)c3C2Cc2cc(OC)c(OC)c(OC)c2)cc(OC)c1OC` (stereo not drawn) [Example 1, trans, trans-2,2'-(trimethylenebis(carbonyloxytrimethy-lene))bis(1,2,3,4-tetrahydro-6,7,8-trimethoxy-2-methyl-1-(3,4,5-trimethoxybenzyl)isoquinolinium) dichloride]?
**A.** ED95 ([1]; Macaca mulatta, intravenous administration, artificial ventilation, 4 animals): 0.05 mg/kg; Duration [1, 4]: ≃15^+ Minutes; Duration [2, 4]: ≃25 Minutes; ED95 ([2]; Felis catus, intravenous administration, artificial ventilation, 2 animals): 0.03 mg/kg

**Q.** With `CC(=O)O[C@H]1C[C@@H]2CC[C@@H]3[C@H](CC[C@@]4(C)[C@H]3C[C@H]([N+]3(C)CCCCC3)[C@@H]4OC(C)=O)[C@@]2(C)C[C@@H]1[N+]1(C)CCCCC1` [pancuronium] as the compound, how does the “dose of agents most widely used clinically” value ([3]; in vivo) read?
**A.** Its value is 0.06 to 0.08 mg/kg.

**Q.** Which “dose of agents most widely used clinically” value ([3]; clinical use, compared with intravenous paralysing dose of compounds of formula (I)) does the source give for `COc1cc2c3cc1Oc1cc(ccc1O)C[C@@H]1c4c(cc(OC)c(O)c4Oc4ccc(cc4)C[C@@H]3N(C)CC2)CC[N+]1(C)C` [d-tubocurarine] here?
**A.** Its value is 0.4 to 0.6 mg/kg.
